Reference: patent US20230405078A1, “DETECTION AND TREATMENT OF INTESTINAL FIBROSIS” (THE REGENTS OF THE UNIVERSITY OF CALIFORNIA, priority 2020, published 2023)
Where no end group is shown, it is not given here.

Columns and labels:
Assay type in all cases: in vivo
Salmonella-infected mice = test: Salmonella-mediated cecal fibrosis in mice; conditions: Salmonella-infected mice with lentiviral elafin overexpression
Method: Eight-week-old male and female 129Sv/J mice (#000691, Jackson Laboratories) were administered 20 mg streptomycin via oral gavage. Twenty-four hours later, the mice were orally infected with Salmonella typhimurium SL1344 strain 1×10^8 colony-forming units by oral gavage to induce cecal fibrosis.
Origene or miR205-5p-OFF lentivrus (mm35328) or miR205-5p-OE lentivirus (mm15214) from Applied Biological Materials on day 14. Some infected mice received oral antibiotics mixture in drinking water ad libitum from day 14 to day 21 to suppress intestinal microbiota. […]
H&E and Masson Trichrome (MT) staining were performed as described previously. Microphotographs were recorded at multiple locations and scored by two investigators blindly. Intestinal injuries were scored (0-12). The severity of intestinal fibrosis was assessed by MT staining and scored (0-3). […]
Total RNA was isolated by an RNeasy kit (#74104, Qiagen) and reverse transcribed into cDNA by a high-capacity cDNA reverse transcription kit (#4368813, ThermoFisher). […] Relative mRNA/miRNA quantification was performed by comparing test groups and control groups after normalization with endogenous control genes. The fold changes are expressed as 2^ΔΔCt. […]
(§1) Overall disease activity (ODA) was calculated by % change of histology and fibrosis scores and colonic mRNA expression of fibrosis- and inflammation-related genes. […]

[1] = system: HFD-treated elafin-overexpressing mice; test: Intraperitoneal IL-1β and IFNγ injection to HFD-treated elafin-overexpressing mice; conditions: for effect on elafin-mediated inhibition of fat mass and fasting blood glucose levels / effect on elafin-mediated inhibition of liver steatosis: mouse, in vivo
Description: FIG. 33. Circulating immune cells mediated the anti-obesity effects of elafin in HFD-treated male mice. (A) Circulating immune cell mRNA expression in the HFD-treated mice with and without lentiviral elafin overexpression. (B) Splenocyte transplantation to HFD-treated Rag−/− mice. (C) Physiological parameters of HFD-treated Rag−/− recipient mice after splenocyte transplantation. Transplantation of splenocytes from elafin-overexpressing donors caused reduced fat mass, body weight, and food consumption and increased leptin levels in the Rag−/− recipient mice. (D) Mesenteric fat and epididymal fat tissue mRNA expression in HFD- treated mice with and without lentiviral elafin overexpression. (E) Determination of the physiological effects of intraperitoneal IL-1β and IFNγ injection to HFD-treated elafin-expressing mice. IL-1β or IFNγ was injected on the same day as elafin-expressing lentivirus injection. (F) Daily food consumption, (G) serum leptin levels. (H) Change in body weight. (I) Change in fat mass. (J) Fasting blood glucose levels. Each group consists of 8 mice.
Some groups were injected with IL-1β protein 2.5 μg per mouse (#211-11B Peprotech) or IFNγ protein 5 μg per mouse (#315-05 Peprotech) intraperitoneally to increase circulating IL-1β or IFNγ levels.

HFD-treated male mice [2] = test: Leptin sensitivity test in HFD-treated male mice
Method: FIG. 35. Elafin-dependent serum exosome-mediated inhibition of hyperphagia and hyperglycemia was reversed by miR181b-5p and miR219-5p inhibitors. (A) Serum exosome transplantation to HFD-treated mice. The miRNA inhibitors were injected on the same day as exosome injection. (B) Change in fat mass. (C) No significant change in body weight among all groups over 7 days after miRNA inhibitor and exosome injection. (D) Fasting blood glucose levels 7 days after exosome and miRNA inhibitor injection. (E) Daily food consumption per mouse. (F) Serum leptin levels measured on day seven post-injection. (G, H) Leptin, Cd36, and adiponectin mRNA expression in the mesenteric fat and epididymal fat of HFD-treated mice with exosome and miRNA inhibitor injection. (I) Leptin sensitivity test: The RD/HFD-treated mice were injected with leptin for 3 days after elafin-LV injection. (J, K) Daily food consumption and fasting blood glucose levels at 24 h after the last leptin injection. Each group consists of 8 mice.
Leptin sensitivity tests were performed by injecting 1 μg/kg leptin intraperitoneally (#450-31, Peprotech) daily for 3 days. At the endpoint of the experiments, mice were fasted for 6 h and tested for fasting blood glucose and cholesterol levels with a drop of tail vein blood using Freestyle Lite blood glucose meter and test strips (Abbott Diabetes Care) and Accutrend Plus meter and test strips (Roche), respectively. The oral glucose tolerance test (OGTT) was performed by feeding D-glucose (1 g/kg) to fasted mice via oral gavage, and the blood glucose level was measured 2 h after oral glucose feeding. Blood glucose and cholesterol levels are presented as mg/dL. Measurements of fasting blood glucose levels, blood total cholesterol levels, food consumption, and fat/lean mass (EchoMRl) were performed as described in our previous report.
For inhibition of miRNAs, control (Y100199006), miR-181b-5p (YC10201288-FZA), and miR-219-5p (YC10201241-FZA) inhibitors (Qiagen) were dissolved in PBS. […]

HFD-treated male mice [3] = test: Oral and subcutaneous administration of modified elafin to HFD-treated male mice; conditions: 14 days
Method: FIG. 36. Subcutaneous and oral administration of modified elafin inhibited hyperphagia and hyperglycemia in HFD-treated male mice. (A) Elafin (1 mg/kg) was injected into RD-treated male mice subcutaneously. Tail-vein blood samples were collected for elafin ELISA. This mouse experiment was intended for the determination of basic pharmacokinetics of elafin, but not the determination of physiology of elafin. (B) HFD-treated mice were treated with either oral gavage of Elafin-Eudragit formulation (10 mg/kg) daily or subcutaneous injection of PEG-elafin (3.25 mg/kg) every 48 h for 14 days. Serum elafin levels. (C) Serum leptin levels. (D) Serum IFNγ and IL-1β levels. (E) Daily food consumption. (F) Change in fat mass. (G) Change in body weight over 14 days. (H) Fasting blood glucose levels. Each group consists of 8 mice.
Oral and subcutaneous administration of modified elafin to mice. Eight-week-old male c57BL/6J (JAX #000664) mice were fed with HFD for 8 weeks to induce obesity and hyperglycemia, followed by administration of Elafin-Eudragit formulation (10 mg/kg) via oral gavage daily or subcutaneous injection of polyethylene glycol conjugated (PEGylated) elafin (3.25 mg/kg) every 48 h to mice for 14 days. Oral Elafin-Eudragit formulation was made by Dr. Xingguo Cheng at the Southwest Research Institute (SWRI), Texas. Elafin was coated with Eudragit FS3OD polymer. […] Elafin-Eudragit was packaged into microparticles using an SWRI-patented spinning disk atomization technology. This packaging prevented leakage of elafin in acidic, aqueous solution. The oral elafin-Eudragit formulation was dissolved in mildly acidified (pH 5) water containing 0.5% hydroxypropyl methylcellulose (HPMC). PEGylated elafin was made by conjugation to methoxyl-PEG12 (New England Peptide Company). Control groups received either oral Eudragit-HPMC solution or subcutaneous PEG injection.

TNBS-treated mice = test: TNBS-associated colonic fibrosis in mice; conditions: TNBS-treated mice
Method: Eight-week-old male and female CD-1 mice (#022, Charles River Laboratories) were injected with 50pL TNBS solution (to induce colonic fibrosis) or 30% ethanol (vehicle) via enema weekly for five weeks. After the last TNBS injection, the mice were held for two additional weeks to develop colonic fibrosis. Some of the mice were injected with 5 μg/mouse of either control (PS100001) or elafin-expressing construct (RC203136) from
Origene via InvivoJetPEI transfection reagent (201-10G, Polyplus) intracolonically on the 9th day after the last TNBS injection or five days before the end of experiment.
Some of the mice received either a single intraperitoneal injection of 10 mg/kg anti-tumor necrosis factor-alpha (anti-TNFα) neutralizing antibody (6E0058, BioXCell) or oral antibiotic mixture in drinking water ad libitum from the 9th day after the last TNBS injection to the endpoint of the experiment. The antibiotics mixture contains kanamycin (0.4 mg/mL), gentamicin (0.035 mg/mL), colistin (850 U/mL), metronidazole (0.215 mg/mL), and vancomycin (0.045 mg/mL), which was routinely used by our laboratory for suppressing intestinal microbiota.
For PAR1/2 activation, some of the mice were injected with DMSO (50pL/mouse), 5 mg/kg PAR1 agonist TRAP-6, or 5 mg/kg PAR2 agonist SLIGKV-NH2 via enema on the 9th, 11th, and 13th days after the last TNBS injection.
For miRNA inhibition, some of the mice were injected with 5 mg/kg either control inhibitor or miR205-5p power inhibitor (Qiagen) […] via enema on the 9th, 11th, and 13th days after the last TNBS injection.
For Zeb1 manipulation, some mice received a single intraperitoneal injection (10^7 infectious units/mouse) of control lentivirus (PS100064V), Zeb1-overexpressing lentivirus (MR223095L2V), or Zeb1-shRNA lentivirus (TL513177V) from Origene, Inc. nine days after the last TNBS injection.
Dr. Xingguo Cheng produced the oral elafin-Eudragit-FS3OD formulation via a material transfer agreement (UCLA MTA2019-00000337) with the Southwest Research Institute (SWRI) in Texas. […] The mice were fed with either control-Eudragit or elafin-Eudragit in mildly acidified (pH 5) water containing 0.5% hydroxypropyl methylcellulose (HPMC) daily via oral gavage during the last five days of the experiment.
H&E and Masson Trichrome (MT) staining were performed as described previously. Microphotographs were recorded at multiple locations and scored by two investigators blindly. Intestinal injuries were scored (0-12). The severity of intestinal fibrosis was assessed by MT staining and scored (0-3). ZEB1 immunohistochemistry was performed using an anti-ZEB1 antibody (HPA027524, Sigma).
Total RNA was isolated by an RNeasy kit (#74104, Qiagen) and reverse transcribed into cDNA by a high-capacity cDNA reverse transcription kit (#4368813, ThermoFisher). PCR reactions were run with Taq Universal SYBR Green Supermix (1725120, Bio-Rad) and TaqMan real-time PCR assays (ThermoFisher) in a Bio-Rad CFX384 system. For the determination of miRNA expression, RNA was converted to cDNA using miRCURY LNA RT kit. PCR reactions were run with miRCURY LNA SYBR Green PCR kit and miRCURY LNA PCR assays (Qiagen). Relative mRNA/miRNA quantification was performed by comparing test groups and control groups after normalization with endogenous control genes. The fold changes are expressed as […]. […]
as §1

## CC[C@H](C)[C@H](NC(=O)[C@H](CC1CCCCC1)NC(=O)c1ccno1)C(=O)NCc1cccc(C(=O)N2CCC(CN)CC2)c1 [GB110, reference compound]
Salmonella-infected mice
  effect on elafin-mediated inhibition of cecal fibrosis / collagen deposition and fibrogenic mRNA expression: reversed

## IFNγ: IFNγ protein (Peprotech)
[1]; IL-1β 2.5 μg or IFNγ 5 μg per mouse intraperitoneally
  food consumption in elafin-overexpressing mice: moderately increased
[1]
  effect on elafin-mediated inhibition of fat mass and fasting blood glucose levels: reversed
  effect on elafin-mediated inhibition of liver steatosis: reversed
HFD-treated male mice [2]; mouse, in vivo
  effect on elafin-mediated decrease of food consumption and fasting blood glucose levels: reversed

## IL-1β: IL-1β protein (Peprotech)
[1]
  effect on elafin-mediated inhibition of fat mass and fasting blood glucose levels: reversed
  effect on elafin-mediated inhibition of liver steatosis: reversed

## Leptin: leptin (#450-31, Peprotech) injected intraperitoneally
HFD-treated male mice [2]; leptin 1 μg/kg intraperitoneally daily for 3 days
  food consumption in HFD-treated elafin-overexpressing mice: further reduced
HFD-treated male mice [2]; leptin daily for 3 days
  decrease of fasting blood glucose in HFD-treated elafin-overexpressing mice: not affected

## PEG-Elafin: elafin conjugated to methoxyl-PEG12, for subcutaneous injection (AQEPVKGPVSTKPGSCPIILIRCAMLNPPNRCLKDTDCPGIKKCCEGSCGMACFVPQ; ends and bridges not checked; also: conjugated to methoxyl-PEG12, site not given here; UniProt P19957 61-117, looked up)
HFD-treated male mice [3]
  circulating IFNγ levels: significantly reduced
  circulating leptin levels: significantly increased
  fasting blood glucose levels: significantly reduced
  fat mass gain: significantly reduced
  food consumption: significantly reduced
  liver steatosis: significantly reduced
HFD-treated male mice [3]; Elafin-Eudragit 10 mg/kg oral daily, PEG-elafin 3.25 mg/kg s.c. every 48 h
  serum elafin levels versus lentiviral elafin overexpression: comparable

## TRAP-6 [PAR1 agonist]
TNBS-treated mice
  colonic injury and fibrosis: did not affect
